ChEMBL document CHEMBL5126517, “Structure-Activity Relationship in the Leucettine Family of Kinase Inhibitors” (J Med Chem, 2022)

target: Glycogen synthase kinase-3 (Sus scrofa, UniProt B2LUN4+I6LNT8); experiment: Inhibition of porcine brain GSK-3alpha/beta using YRRAAVPPSPSLSRHSSPHQpSEDEEE as substrate incubated for 30 mins in presence of ATP by scintillation counting method; format: tissue-based; details: not given

| SMILES | IC50 [nM] |
| --- | --- |
| O=C1NC(Nc2ccccc2)=N/C1=C\c1ccc2c(c1)CCCO2 | > 10000 |
| Cc1ccc(NC2=N/C(=C\c3ccc4c(c3)OCO4)C(=O)N2)cc1 | 7300 |
| Cc1ccc(NC2=N/C(=C\c3ccc4c(c3)OCO4)C(=O)N2)cc1C | > 10000 |
| CN(C1=N/C(=C\c2ccc3c(c2)OCO3)C(=O)N1)c1ccccc1 | 6200 |

target: Dual specificity protein kinase CLK3 (Mus musculus, UniProt O35492); experiment: Inhibition of GST-fused mouse recombinant CLK3 expressed in Escherichia coli using GRSRSRSRSRSR peptide as substrate incubated for 30 mins in presence of ATP by scintillation counting method; details: not given
Sequence (O35492 whole entry, the tested form may be a part): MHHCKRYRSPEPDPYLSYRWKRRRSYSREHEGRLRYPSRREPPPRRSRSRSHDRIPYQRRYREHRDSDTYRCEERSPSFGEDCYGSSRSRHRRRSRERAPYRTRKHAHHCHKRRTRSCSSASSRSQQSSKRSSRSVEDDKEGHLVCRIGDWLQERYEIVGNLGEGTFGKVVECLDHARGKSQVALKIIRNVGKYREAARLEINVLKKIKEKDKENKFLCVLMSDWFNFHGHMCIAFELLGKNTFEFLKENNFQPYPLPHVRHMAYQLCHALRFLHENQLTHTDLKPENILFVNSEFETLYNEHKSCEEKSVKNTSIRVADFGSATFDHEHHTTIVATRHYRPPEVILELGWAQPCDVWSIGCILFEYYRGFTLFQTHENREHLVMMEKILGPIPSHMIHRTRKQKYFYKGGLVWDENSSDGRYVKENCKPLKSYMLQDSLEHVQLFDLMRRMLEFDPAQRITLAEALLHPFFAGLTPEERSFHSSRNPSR

| SMILES | IC50 [nM] |
| --- | --- |
| O=C1NC(Nc2ccccc2)=N/C1=C\c1ccc2c(c1)CCCO2 | ≥ 10000 |
| Cc1ccc(NC2=N/C(=C\c3ccc4c(c3)OCO4)C(=O)N2)cc1C | > 10000 |
| CN(C1=N/C(=C\c2ccc3c(c2)OCO3)C(=O)N1)c1ccccc1 | 2600 |

target: T1, Dual specificity tyrosine-phosphorylation-regulated kinase 3 (Homo sapiens, UniProt O43781); experiment: Inhibition of GST-fused human recombinant DYRK3 expressed in Escherichia coli using GRSRSRSRSRSR peptide as substrate incubated for 30 mins in presence of ATP by scintillation counting method; details: not given
T1 sequence (O43781 whole entry): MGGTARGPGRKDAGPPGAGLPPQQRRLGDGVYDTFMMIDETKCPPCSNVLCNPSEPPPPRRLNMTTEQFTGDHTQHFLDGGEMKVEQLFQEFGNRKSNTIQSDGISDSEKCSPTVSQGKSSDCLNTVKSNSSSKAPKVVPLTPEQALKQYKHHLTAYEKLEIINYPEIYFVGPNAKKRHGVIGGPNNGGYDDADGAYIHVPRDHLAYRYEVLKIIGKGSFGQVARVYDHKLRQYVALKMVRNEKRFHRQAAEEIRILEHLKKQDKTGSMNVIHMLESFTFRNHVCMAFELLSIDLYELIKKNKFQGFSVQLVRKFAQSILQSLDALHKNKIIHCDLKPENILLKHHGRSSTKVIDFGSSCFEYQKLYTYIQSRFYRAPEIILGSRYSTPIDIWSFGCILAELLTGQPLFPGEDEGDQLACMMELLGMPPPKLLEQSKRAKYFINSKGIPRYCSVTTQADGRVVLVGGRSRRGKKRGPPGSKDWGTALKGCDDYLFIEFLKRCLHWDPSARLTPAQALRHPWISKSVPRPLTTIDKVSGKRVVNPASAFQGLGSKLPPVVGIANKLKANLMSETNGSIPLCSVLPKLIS

| SMILES | IC50 [nM] |
| --- | --- |
| O=C1NC(Nc2ccccc2)=N/C1=C\c1ccc2c(c1)CCCO2 | 420 |
| Cc1ccc(NC2=N/C(=C\c3ccc4c(c3)OCO4)C(=O)N2)cc1 | 320 |
| Cc1ccc(NC2=N/C(=C\c3ccc4c(c3)OCO4)C(=O)N2)cc1C | 1700 |
| CN(C1=N/C(=C\c2ccc3c(c2)OCO3)C(=O)N1)c1ccccc1 | 1800 |

tested on: HT-22; experiment: Modulation of CLK1 pre-mRNA splicing in mouse HT-22 cells assessed as inclusion of CLK1 exon 4 by measuring change in threshold cycle at 10 uM measured after 4 hrs by real time PCR analysis; format: cell-based; details: filed as modulator

| SMILES | deltaCT |
| --- | --- |
| Cc1ccc(NC2=N/C(=C\c3ccc4c(c3)OCO4)C(=O)N2)cc1 | 2.29 |

tested on: not listed separately; experiment: Neurotoxicity against mouse HT-22 cells assessed as cell survival at 20 uM treated for 24 hrs by MTS assay; format: toxicity, cell-based; details: ht-22, 24 h

| SMILES | Activity |
| --- | --- |
| Cc1ccc(NC2=N/C(=C\c3ccc4c(c3)OCO4)C(=O)N2)cc1 | Non-Toxic |

target: Dual specificity tyrosine-phosphorylation-regulated kinase 1B (Homo sapiens, UniProt Q9Y463); details: not given
Sequence (Q9Y463 whole entry): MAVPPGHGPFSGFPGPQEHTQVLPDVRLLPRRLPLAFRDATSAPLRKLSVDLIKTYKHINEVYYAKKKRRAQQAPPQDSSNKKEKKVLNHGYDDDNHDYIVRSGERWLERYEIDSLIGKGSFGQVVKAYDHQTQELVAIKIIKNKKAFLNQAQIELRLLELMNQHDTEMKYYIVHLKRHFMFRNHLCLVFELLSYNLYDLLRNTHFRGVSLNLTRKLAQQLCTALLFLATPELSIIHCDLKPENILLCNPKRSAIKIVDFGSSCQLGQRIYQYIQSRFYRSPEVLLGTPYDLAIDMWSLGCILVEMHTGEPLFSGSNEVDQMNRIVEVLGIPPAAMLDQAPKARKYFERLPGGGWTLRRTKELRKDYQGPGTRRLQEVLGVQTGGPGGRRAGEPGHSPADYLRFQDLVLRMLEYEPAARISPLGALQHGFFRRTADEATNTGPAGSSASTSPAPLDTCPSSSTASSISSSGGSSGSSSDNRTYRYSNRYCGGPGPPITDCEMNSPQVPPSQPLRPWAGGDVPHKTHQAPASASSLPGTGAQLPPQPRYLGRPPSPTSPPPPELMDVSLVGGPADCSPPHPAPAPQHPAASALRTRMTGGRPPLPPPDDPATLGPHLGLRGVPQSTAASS

| SMILES | IC50 [nM] |
| --- | --- |
| O=C1NC(Nc2ccccc2)=N/C1=C\c1ccc2c(c1)CCCO2 | 360 |
| Cc1ccc(NC2=N/C(=C\c3ccc4c(c3)OCO4)C(=O)N2)cc1 | 53 |
| Cc1ccc(NC2=N/C(=C\c3ccc4c(c3)OCO4)C(=O)N2)cc1C | 520 |
| CN(C1=N/C(=C\c2ccc3c(c2)OCO3)C(=O)N1)c1ccccc1 | 680 |

target: Serine/threonine-protein kinase pim-1 (Homo sapiens, UniProt P11309); experiment: Inhibition of human recombinant Pim1 expressed in Escherichia coli using histone H1 as substrate incubated for 30 mins in presence of ATP by scintillation counting method; details: not given
Sequence (P11309 whole entry): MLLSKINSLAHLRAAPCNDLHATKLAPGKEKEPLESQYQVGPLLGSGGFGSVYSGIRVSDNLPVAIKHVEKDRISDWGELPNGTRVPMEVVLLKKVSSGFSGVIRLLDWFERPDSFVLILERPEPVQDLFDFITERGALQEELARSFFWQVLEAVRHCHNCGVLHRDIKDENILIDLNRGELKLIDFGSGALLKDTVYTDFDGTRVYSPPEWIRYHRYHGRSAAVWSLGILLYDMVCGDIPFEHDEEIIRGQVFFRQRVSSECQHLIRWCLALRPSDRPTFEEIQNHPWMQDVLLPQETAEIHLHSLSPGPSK

| SMILES | IC50 [nM] |
| --- | --- |
| O=C1NC(Nc2ccccc2)=N/C1=C\c1ccc2c(c1)CCCO2 | 1200 |
| Cc1ccc(NC2=N/C(=C\c3ccc4c(c3)OCO4)C(=O)N2)cc1 | 3500 |
| Cc1ccc(NC2=N/C(=C\c3ccc4c(c3)OCO4)C(=O)N2)cc1C | > 10000 |
| CN(C1=N/C(=C\c2ccc3c(c2)OCO3)C(=O)N1)c1ccccc1 | 2000 |

target: Dual specificity protein kinase CLK1 (Mus musculus, UniProt P22518); experiment: Inhibition of GST-fused mouse recombinant CLK1 expressed in Escherichia coli using GRSRSRSRSRSR peptide as substrate incubated for 30 mins in presence of ATP by scintillation counting method; details: not given
Sequence (P22518 whole entry, the tested form may be a part): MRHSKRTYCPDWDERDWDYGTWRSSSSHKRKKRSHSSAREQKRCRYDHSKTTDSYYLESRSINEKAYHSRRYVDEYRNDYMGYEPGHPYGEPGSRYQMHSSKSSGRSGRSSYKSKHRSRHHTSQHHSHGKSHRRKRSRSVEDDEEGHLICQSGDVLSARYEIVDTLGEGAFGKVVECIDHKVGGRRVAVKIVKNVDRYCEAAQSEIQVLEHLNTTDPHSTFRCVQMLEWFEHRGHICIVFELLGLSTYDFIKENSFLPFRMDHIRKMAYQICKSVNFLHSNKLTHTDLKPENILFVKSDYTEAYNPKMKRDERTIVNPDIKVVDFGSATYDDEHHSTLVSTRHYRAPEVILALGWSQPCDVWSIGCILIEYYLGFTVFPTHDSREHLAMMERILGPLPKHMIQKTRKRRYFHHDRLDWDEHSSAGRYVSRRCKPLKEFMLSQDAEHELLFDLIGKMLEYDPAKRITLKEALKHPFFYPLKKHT

| SMILES | IC50 [nM] |
| --- | --- |
| O=C1NC(Nc2ccccc2)=N/C1=C\c1ccc2c(c1)CCCO2 | 120 |
| Cc1ccc(NC2=N/C(=C\c3ccc4c(c3)OCO4)C(=O)N2)cc1 | 53 |
| Cc1ccc(NC2=N/C(=C\c3ccc4c(c3)OCO4)C(=O)N2)cc1C | 280 |
| CN(C1=N/C(=C\c2ccc3c(c2)OCO3)C(=O)N1)c1ccccc1 | 310 |

target: T2, Dual specificity tyrosine-phosphorylation-regulated kinase 2 (Homo sapiens, UniProt Q92630); experiment: Inhibition of GST-fused human recombinant DYRK2 expressed in Escherichia coli using GRSRSRSRSRSR peptide as substrate incubated for 30 mins in presence of ATP by scintillation counting method; details: not given
T2 sequence (Q92630 whole entry): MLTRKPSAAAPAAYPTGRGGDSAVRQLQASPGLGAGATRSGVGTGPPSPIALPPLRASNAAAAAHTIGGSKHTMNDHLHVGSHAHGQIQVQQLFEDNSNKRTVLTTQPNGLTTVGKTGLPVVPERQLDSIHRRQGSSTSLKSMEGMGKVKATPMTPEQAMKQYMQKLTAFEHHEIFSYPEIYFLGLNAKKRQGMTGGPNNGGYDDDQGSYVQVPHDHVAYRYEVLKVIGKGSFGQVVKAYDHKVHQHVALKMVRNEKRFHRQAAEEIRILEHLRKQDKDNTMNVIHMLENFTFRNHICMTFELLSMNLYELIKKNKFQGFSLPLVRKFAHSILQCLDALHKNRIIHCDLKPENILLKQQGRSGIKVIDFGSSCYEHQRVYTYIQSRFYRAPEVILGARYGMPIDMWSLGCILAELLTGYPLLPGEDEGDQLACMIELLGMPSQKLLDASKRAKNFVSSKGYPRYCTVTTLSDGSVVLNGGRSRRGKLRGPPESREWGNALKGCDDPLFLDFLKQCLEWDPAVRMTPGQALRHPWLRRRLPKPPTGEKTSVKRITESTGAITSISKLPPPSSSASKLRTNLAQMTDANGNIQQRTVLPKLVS

| SMILES | IC50 [nM] |
| --- | --- |
| O=C1NC(Nc2ccccc2)=N/C1=C\c1ccc2c(c1)CCCO2 | 120 |
| Cc1ccc(NC2=N/C(=C\c3ccc4c(c3)OCO4)C(=O)N2)cc1 | 34 |
| Cc1ccc(NC2=N/C(=C\c3ccc4c(c3)OCO4)C(=O)N2)cc1C | 55 |
| CN(C1=N/C(=C\c2ccc3c(c2)OCO3)C(=O)N1)c1ccccc1 | 320 |

target: Dual specificity protein kinase CLK4 (Mus musculus, UniProt O35493); experiment: Inhibition of GST-fused mouse recombinant CLK4 expressed in Escherichia coli using GRSRSRSRSRSR peptide as substrate incubated for 30 mins in presence of ATP by scintillation counting method; details: not given
Sequence (O35493 whole entry, the tested form may be a part): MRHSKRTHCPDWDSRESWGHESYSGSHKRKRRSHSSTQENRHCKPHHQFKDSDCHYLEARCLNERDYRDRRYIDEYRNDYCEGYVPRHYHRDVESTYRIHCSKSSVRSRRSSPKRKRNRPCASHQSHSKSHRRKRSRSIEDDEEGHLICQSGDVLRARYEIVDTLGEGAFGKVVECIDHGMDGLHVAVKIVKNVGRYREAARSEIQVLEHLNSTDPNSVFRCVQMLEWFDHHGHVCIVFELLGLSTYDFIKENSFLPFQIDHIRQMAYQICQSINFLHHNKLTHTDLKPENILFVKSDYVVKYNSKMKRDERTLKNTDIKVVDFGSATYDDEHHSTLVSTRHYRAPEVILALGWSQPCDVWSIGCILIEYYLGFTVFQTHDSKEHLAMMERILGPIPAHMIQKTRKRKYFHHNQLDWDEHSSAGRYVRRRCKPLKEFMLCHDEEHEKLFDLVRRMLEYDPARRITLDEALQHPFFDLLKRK

| SMILES | IC50 [nM] |
| --- | --- |
| O=C1NC(Nc2ccccc2)=N/C1=C\c1ccc2c(c1)CCCO2 | 140 |
| Cc1ccc(NC2=N/C(=C\c3ccc4c(c3)OCO4)C(=O)N2)cc1 | 56 |
| Cc1ccc(NC2=N/C(=C\c3ccc4c(c3)OCO4)C(=O)N2)cc1C | 160 |
| CN(C1=N/C(=C\c2ccc3c(c2)OCO3)C(=O)N1)c1ccccc1 | 130 |

target: Casein kinase 2 (Homo sapiens, UniProt P67870+P68400+P19784+Q8NEV1); experiment: Inhibition of human recombinant CK2 using RRRDDDSDDD peptide as substrate incubated for 30 mins in presence of ATP by scintillation counting method; format: protein assay; details: not given

| SMILES | IC50 [nM] |
| --- | --- |
| O=C1NC(Nc2ccccc2)=N/C1=C\c1ccc2c(c1)CCCO2 | 2200 |
| Cc1ccc(NC2=N/C(=C\c3ccc4c(c3)OCO4)C(=O)N2)cc1 | 1700 |
| Cc1ccc(NC2=N/C(=C\c3ccc4c(c3)OCO4)C(=O)N2)cc1C | > 10000 |
| CN(C1=N/C(=C\c2ccc3c(c2)OCO3)C(=O)N1)c1ccccc1 | 2100 |

tested on: HT-22; experiment: Neuroprotective activity against glutamate-induced cell death in mouse HT-22 cells treated for 24 hrs by MTS assay; format: functional, cell-based; details: HT-22, 24 h

| SMILES | EC50 [nM] |
| --- | --- |
| O=C1NC(Nc2ccccc2)=N/C1=C\c1ccc2c(c1)CCCO2 | 3500 |
| Cc1ccc(NC2=N/C(=C\c3ccc4c(c3)OCO4)C(=O)N2)cc1 | 3200 |
| Cc1ccc(NC2=N/C(=C\c3ccc4c(c3)OCO4)C(=O)N2)cc1C | 2700 |
| CN(C1=N/C(=C\c2ccc3c(c2)OCO3)C(=O)N1)c1ccccc1 | > 20000 |

target: Cannabinoid receptor 1 (Homo sapiens, UniProt P21554); experiment: Antagonist activity at CP-55940-activated CB1 receptor (unknown origin) at 10 uM by beta-arrestin assay relative to control; format: functional; parameters: scale not given: the % may be the effect or the level left; details: not given
Sequence (P21554 whole entry): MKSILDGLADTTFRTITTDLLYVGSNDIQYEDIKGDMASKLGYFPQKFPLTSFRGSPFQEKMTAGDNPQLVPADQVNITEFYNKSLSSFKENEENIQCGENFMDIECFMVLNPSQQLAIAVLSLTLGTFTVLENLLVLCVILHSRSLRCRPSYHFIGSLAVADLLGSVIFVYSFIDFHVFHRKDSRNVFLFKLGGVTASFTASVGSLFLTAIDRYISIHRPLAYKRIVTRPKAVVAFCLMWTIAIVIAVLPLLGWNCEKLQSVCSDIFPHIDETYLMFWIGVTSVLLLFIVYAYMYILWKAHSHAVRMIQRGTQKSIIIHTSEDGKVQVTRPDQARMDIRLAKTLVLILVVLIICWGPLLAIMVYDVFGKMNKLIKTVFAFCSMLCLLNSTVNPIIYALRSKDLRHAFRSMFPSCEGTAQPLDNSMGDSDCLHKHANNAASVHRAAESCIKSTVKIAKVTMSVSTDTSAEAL

| SMILES | Activity [%] |
| --- | --- |
| CN(C1=N/C(=C\c2ccc3c(c2)OCO3)C(=O)N1)c1ccccc1 | -9.1 |

same assay, conditions: filed as antagonist

| SMILES | Activity [%] |
| --- | --- |
| O=C1NC(Nc2ccccc2)=N/C1=C\c1ccc2c(c1)CCCO2 | 94 |
| Cc1ccc(NC2=N/C(=C\c3ccc4c(c3)OCO4)C(=O)N2)cc1 | 90.8 |
| Cc1ccc(NC2=N/C(=C\c3ccc4c(c3)OCO4)C(=O)N2)cc1C | 51.7 |

tested on: U2OS; experiment: Induction of PI3K/mTor-dependent autophagy in human U2OS cells assessed as number of LC3 foci per cell at 10 uM measured after 4 hrs; format: cell-based; details: filed as activator

| SMILES | Activity |
| --- | --- |
| O=C1NC(Nc2ccccc2)=N/C1=C\c1ccc2c(c1)CCCO2 | 4.8 |
| Cc1ccc(NC2=N/C(=C\c3ccc4c(c3)OCO4)C(=O)N2)cc1 | 8.4 |
| Cc1ccc(NC2=N/C(=C\c3ccc4c(c3)OCO4)C(=O)N2)cc1C | 6.6 |
| CN(C1=N/C(=C\c2ccc3c(c2)OCO3)C(=O)N1)c1ccccc1 | 4.7 |

tested on: not listed separately; experiment: Neurotoxicity against mouse HT-22 cells assessed as cell survival treated for 24 hrs by MTS assay; format: toxicity, cell-based; details: not given

| SMILES | IC50 at 24 h [nM] | EC50 at 24 h [nM] |
| --- | --- | --- |
| O=C1NC(Nc2ccccc2)=N/C1=C\c1ccc2c(c1)CCCO2 | > 20000 |  |
| Cc1ccc(NC2=N/C(=C\c3ccc4c(c3)OCO4)C(=O)N2)cc1C |  | > 20000 |
| CN(C1=N/C(=C\c2ccc3c(c2)OCO3)C(=O)N1)c1ccccc1 |  | > 20000 |

target: Dual specificity protein kinase CLK2 (Mus musculus, UniProt O35491); experiment: Inhibition of mouse recombinant GST-fused CLK2 expressed in Escherichia coli using GRSRSRSRSRSR peptide as substrate incubated for 30 mins in presence of ATP by scintillation counting method; details: not given
Sequence (O35491 whole entry, the tested form may be a part): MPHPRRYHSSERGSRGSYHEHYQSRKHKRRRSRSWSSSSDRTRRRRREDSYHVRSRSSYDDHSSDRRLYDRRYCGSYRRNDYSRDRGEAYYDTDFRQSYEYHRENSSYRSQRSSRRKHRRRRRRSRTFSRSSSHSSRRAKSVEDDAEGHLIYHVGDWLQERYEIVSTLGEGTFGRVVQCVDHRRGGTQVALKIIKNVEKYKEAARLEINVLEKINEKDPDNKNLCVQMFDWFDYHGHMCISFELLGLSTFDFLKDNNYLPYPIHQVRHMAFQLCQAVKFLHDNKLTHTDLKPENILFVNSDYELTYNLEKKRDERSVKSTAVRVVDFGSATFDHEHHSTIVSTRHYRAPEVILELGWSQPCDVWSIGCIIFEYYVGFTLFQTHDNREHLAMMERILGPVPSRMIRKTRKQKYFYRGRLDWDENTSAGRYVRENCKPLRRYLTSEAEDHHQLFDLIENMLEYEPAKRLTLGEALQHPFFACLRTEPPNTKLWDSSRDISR

| SMILES | IC50 [nM] |
| --- | --- |
| O=C1NC(Nc2ccccc2)=N/C1=C\c1ccc2c(c1)CCCO2 | 1800 |
| Cc1ccc(NC2=N/C(=C\c3ccc4c(c3)OCO4)C(=O)N2)cc1 | 1000 |
| Cc1ccc(NC2=N/C(=C\c3ccc4c(c3)OCO4)C(=O)N2)cc1C | 2200 |
| CN(C1=N/C(=C\c2ccc3c(c2)OCO3)C(=O)N1)c1ccccc1 | 1200 |

target: Dual specificity tyrosine-phosphorylation-regulated kinase 1A (Homo sapiens, UniProt Q13627); experiment: Inhibition of GST-fused human recombinant DYRK1A expressed in Escherichia coli using GRSRSRSRSRSR peptide as substrate incubated for 30 mins in presence of ATP by scintillation counting method; details: not given

| SMILES | IC50 [nM] |
| --- | --- |
| O=C1NC(Nc2ccccc2)=N/C1=C\c1ccc2c(c1)CCCO2 | 120 |
| Cc1ccc(NC2=N/C(=C\c3ccc4c(c3)OCO4)C(=O)N2)cc1 | 18 |
| Cc1ccc(NC2=N/C(=C\c3ccc4c(c3)OCO4)C(=O)N2)cc1C | 130 |
| CN(C1=N/C(=C\c2ccc3c(c2)OCO3)C(=O)N1)c1ccccc1 | 380 |
